PMC11858854, “In Vitro and In Vivo Assessment of Pharmacokinetic Profile of Peramivir in the Context of Inhalation Therapy” (Pharmaceuticals, 2025)

Experiments:
[1] = target: T1, human OCT2 (Homo sapiens, UniProt O15244); assay: Uptake study, HEK293 cells overexpressing OCT2; format: in vitro ADME
T1 construct: host or cells: HEK293 (HEK293-OCT2); control HEK293-MOCK
T1 sequence (O15244 1-555): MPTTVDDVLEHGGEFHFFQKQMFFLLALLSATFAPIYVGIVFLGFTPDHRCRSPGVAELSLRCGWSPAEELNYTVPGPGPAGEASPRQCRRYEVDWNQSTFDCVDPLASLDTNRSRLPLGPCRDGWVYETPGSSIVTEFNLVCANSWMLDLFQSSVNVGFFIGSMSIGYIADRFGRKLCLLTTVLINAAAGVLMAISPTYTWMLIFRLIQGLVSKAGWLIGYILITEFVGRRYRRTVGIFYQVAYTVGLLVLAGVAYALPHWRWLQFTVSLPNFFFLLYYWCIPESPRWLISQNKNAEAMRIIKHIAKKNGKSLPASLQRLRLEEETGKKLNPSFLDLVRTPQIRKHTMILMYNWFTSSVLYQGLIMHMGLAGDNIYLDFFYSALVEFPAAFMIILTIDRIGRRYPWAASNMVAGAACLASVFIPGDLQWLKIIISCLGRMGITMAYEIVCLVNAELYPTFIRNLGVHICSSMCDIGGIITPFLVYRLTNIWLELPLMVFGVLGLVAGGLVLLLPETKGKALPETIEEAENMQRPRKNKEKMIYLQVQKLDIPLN
Experimental: (§1) All cells (HEK293-MOCK, HEK293-OCT1, HEK293-OCT2, MDCK-MOCK, MDCK-OCTN1, and MDCK-OCTN2) were cultured in DMEM medium supplemented with 10% FBS and PS (100 U/mL), at 37 °C in a humidified 5% CO2 incubator. Cells were seeded on 24-well plates at a density of 1 × 10^4 cells/well. For the uptake assay, the DMEM media were removed, and the cells were washed with pre-warmed Hank’s buffer three times (1 mL/well). Subsequent addition of inhibitor-free/inhibitor-containing buffer was pre-incubated for 30 min at 37 °C prior to the initiation of the uptake experiment. After the pre-incubating buffer was removed, 200 μL of pre-warmed test drugs solution (Hank’s buffer containing 10 µM and 50 µM peramivir) or a mixture of test drugs and inhibitor was added into each well, and the plates were incubated at 37 °C for 5 min. At the end of incubation, cells were washed and lysed as described above. The cell lysate was collected and stored at −40 °C for LC-MS/MS analysis and protein measurement. The negative control (MOCK cells) and positive control were included simultaneously.

[2] = tested on: overexpressed cell lines (uptake transporters); assay: Uptake study by overexpression cell lines, 10 μM substrate; format: in vitro ADME; conditions: substrate concentration 10 μM
Experimental: as §1

Structure (SMILES): CCC(CC)[C@H](NC(C)=O)[C@@H]1[C@H](O)[C@@H](C(=O)O)C[C@H]1N=C(N)N [Peramivir]
- OCT2 substrate status ([1]; HEK293-OCT2): does not act as a substrate
- transporter-mediated uptake ratio (UR) ([1]; HEK293-OCT2, 50 μM): < 1
- inhibition ratio (IR) ([1]; HEK293-OCT2, 50 μM, inhibitor verapamil (200 μM)): exceeding 98.51%
- concentration of peramivir in uptake experiment (below the detection limit) [2]: < 2 nM
